Data from US20250376473A1, “PRMTS INHIBITOR AND USE THEREOF” (Cytosinlab Therapeutics Co., Ltd., priority 2022, published 2025).
Read-outs that look alike come from different tables or passages of the source.

What was measured:
HCT116 MTAP WT cells = experiment: Proliferation inhibition of HCT116 cells in vitro (CellTiter Glo); assay type: cell-based; conditions: 6 days, 9 concentrations starting from 30 μM, read-out: Cell proliferation inhibition rate HCT116 MTAP WT IC50 (nm)
Text: (§1) Biological Test Example 2 Proliferation Inhibition of HCT116 and HCT116 MTAP-KO Cells in Vitro
(§2) HCT116 cell line was purchased from the Chinese Academy of Sciences Cell Bank, and the MTAP gene was knocked out by CRISPR/Cas9 technology to obtain HCT116-MTAP-KO cell line.
(§3) McCoy's 5A medium (Gibco, catalog No. 16600082), fetal bovine serum (Gibco, catalog No. 10099141C), penicillin-streptomycin double antibody (Gibco, catalog No. 15140122), pancreatic enzyme (Gibco, catalog No. 25200056), CellTiter Glo assay kit (Promega, catalog No. G7572), 384-well transparent flat-bottomed black walled cell culture plate (Corning, catalog No. 3764), ultra micro sampler (Tecan, catalog No.D300e), Multimode reader (Biotek, catalog No. SynergyHTX)
(§4) 1. Cell culture: HCT116 and HCT116-MTAP-KO cells were cultured in McCoy'5A medium+10% fetal bovine serum+1% penicillin-streptomycin double antibody; to ensure that they were always in the logarithmic growth phase and the cell viability greater than 95%.
(§5) 2. Compound concentration gradient preparation: The compound to be tested was added to a 384-well plate using an ultra micro sampler, starting from 30 μM (HCT116 cells) or 3 μM (HCT116-MTAP-KO cells), and diluted with DMSO at 3 times for a total of 9 concentrations and set up three duplicate wells.
(§6) 3. Treatment of cells with compounds: Trypsin-digested HCT116 or HCT116-MTAP-KO cell suspension was added to the 384-well plates spotted with the compounds to be tested at 40 μL per well, i.e., 100 cells per well, and the final concentration of DMSO was 0.4%. The cell culture plate was incubated at 37° C. in a 5% CO2 incubator for 6 days.
(§7) 4. Detection: 20 μL of CellTiter Glo reagent was added to each well of the cell culture plate and incubated at room temperature for 30 minutes. A multimode reader was used to detect the luminescence signal at […].
(§8) The data was fitted with GraphPad Prism 8.0 software using a four parameter inhibitor-reaction model to obtain the IC50 value (half inhibitory concentration) of the test compounds.

[1] = test system: HCT116-MTAP-KO cells (HCT116 MTAP null); experiment: Proliferation inhibition of HCT116 MTAP-KO cells in vitro (CellTiter Glo); assay type: cell-based; conditions: 6 days, 9 concentrations starting from 3 μM, read-out: Cell proliferation inhibition rate HCT116 MTAP null IC50 (nm)
Text: as §1, §2, §3, §4, §5, §6, §7, §8

SMILES | IC50 (HCT116 MTAP WT cells; Homo sapiens, HCT-116, 144 h) | IC50 ([1]; HCT116-MTAP null, 144 h) | IC50 (HCT116 MTAP WT cells) | IC50 [1]
Cc1nn(C)cc1N(Cc1ccc(C(F)(F)F)cn1)Cc1cc2c(cc1F)nc(N)c1cnc(C)n12 [Example 208] | 1 to 10 µM | < 0.1 µM | – | –
COCCn1cc(CN(C(=O)c2cc3c(cc2F)nc(N)c2cnc(C)n23)c2ccnn2C)cn1 [Example 221] | 1 to 10 µM | 0.1 to 1 µM | – | –
Cc1nn(C)cc1N(Cc1ccc(C(F)(F)F)cn1)C(=O)c1cc2c(cc1F)nc(N)c1cnc(C)n12 [Example 109] | 1 to 10 µM | < 0.1 µM | – | –
CCN(Cc1ccc(OC2COC2)cn1)C(=O)c1cc2c(cc1F)nc(N)c1cnc(C)n12 [Example 99] | 1 to 10 µM | 0.1 to 1 µM | – | –
Cc1ncc2c(N)nc3cc(F)c(C(=O)N(Cc4ccc(C(F)(F)F)cn4)c4ccnn4C)cc3n12 [Example 200] | 0.1 to 1 µM | < 0.1 µM | – | –
Cc1cn(C)nc1N(Cc1ccc(C(F)(F)F)cn1)C(=O)c1cc2c(cc1F)nc(N)c1cnc(C)n12 [Example 179] | 1 to 10 µM | < 0.1 µM | – | –
Cc1ncc2c(N)nc3cc(F)c(C(=O)N(Cc4ccc(C(F)(F)F)cn4)c4cn(C)nc4C(F)(F)F)cc3n12 [Example 178] | 1 to 10 µM | < 0.1 µM | – | –
Cc1ncc2c(N)nc3cc(F)c(C(=O)N(Cc4cccc(C(F)(F)F)n4)c4ccnn4C)cc3n12 [Example 326] | 1 to 10 µM | < 0.1 µM | – | –
Cc1ncc2c(N)nc3cc(F)c(C(=O)N(Cc4ccc(C(F)(F)F)nn4)c4cnn(C)c4)cc3n12 [Example 119] | 1 to 10 µM | 0.1 to 1 µM | – | –
Cc1ncc2c(N)nc3cc(F)c(C(=O)N4C(c5ccc(C(F)F)cn5)COC[C@H]4C)cc3n12 (stereo partly drawn) [Example 110] | 0.1 to 1 µM | < 0.1 µM | – | –
Cc1cc2nc(N)c3cnc(C)n3c2cc1C(=O)N(Cc1ccc(C(F)(F)F)cn1)c1cn(C)nc1C [Example 188, 4-Amino-N-(1,3-dimethyl-1H-pyrazol-4-yl)-1,7-dimethyl-N-((5-(trifluoromethyl)pyridin-2-yl)methyl)imidazolo[1,5-a]quinoxalin-8-carboxamide] | 1 to 10 µM | < 0.1 µM | – | –
Cc1ccc(N(Cc2ccc(C(F)(F)F)cn2)C(=O)c2cc3c(cc2F)nc(N)c2cnc(C)n23)cn1 [Example 139] | 1 to 10 µM | < 0.1 µM | – | –
CCOc1ccc(CN(C(=O)c2cc3c(cc2F)nc(N)c2cnc(C)n23)c2ccnn2C)nc1 [Example 212] | 1 to 10 µM | < 0.1 µM | – | –
Cc1ncc2c(N)nc3cc(F)c(C(=O)N(Cc4ccc(F)cn4)c4ccnn4C)cc3n12 [Example 207] | 1 to 10 µM | < 0.1 µM | – | –
Cc1ncc2c(N)nc3ccc(C(=O)N(Cc4ccc(C(F)(F)F)cn4)C(C)c4ncccn4)cc3n12 (stereo not drawn) [Example 2] | 1 to 10 µM | 0.1 to 1 µM | – | –
Cc1ncc2c(N)nc3cc(F)c(C(=O)N(Cc4cnn(C5CC5)c4)c4ccnn4C)cc3n12 [Example 317] | 1 to 10 µM | < 0.1 µM | – | –
Cc1cn(C)c(N(Cc2ccc(C(F)(F)F)cn2)C(=O)c2cc3c(cc2F)nc(N)c2cnc(C)n23)n1 [Example 210, 4-Amino-N-(1,4-dimethyl-1H-imidazol-2-yl)-7-fluoro-1-methyl-N-((5-(trifluoromethyl)pyridin-2-yl)methyl)imidazolo[1,5-a]quinoxalin-8-carboxamide] | 1 to 10 µM | < 0.1 µM | – | –

SMILES | IC50 (HCT116 MTAP WT cells; Homo sapiens, HCT-116, 144 h) | IC50 ([1]; HCT116-MTAP null, 144 h) | IC50 (HCT116 MTAP WT cells) | IC50 [1]
Cc1nn(C)cc1N(Cc1ncc(C(F)(F)F)s1)C(=O)c1cc2c(cc1F)nc(N)c1cnc(C)n12 [Example 203] | 1 to 10 µM | < 0.1 µM | – | –
CCOc1ccc(CN(C(=O)c2cc3c(cc2F)nc(N)c2cnc(C)n23)c2cn(C)nc2C)nc1 [Example 136] | 1 to 10 µM | < 0.1 µM | – | –
Cc1ncc2c(N)nc3cc(F)c(C(=O)N(Cc4cnn(C5CCOCC5)c4)c4ccnn4C)cc3n12 [Example 227] | 1 to 10 µM | 0.1 to 1 µM | – | –
Cc1ncc2c(N)nc3cc(F)c(C(=O)N(C)C4COc5cc(-c6cnn(C(F)(F)F)c6)ccc54)cc3n12 (stereo not drawn) [Example 46] | 0.1 to 1 µM | 1 to 10 µM | – | –
Cc1ncc2c(N)nc3cc(F)c(C(=O)N(Cc4cn5ccccc5n4)C(C)C(F)(F)F)cc3n12 (stereo not drawn) [Example 243] | 1 to 10 µM | 0.1 to 1 µM | – | –
COCCOc1ccc(CN(C(=O)c2cc3c(cc2F)nc(N)c2cnc(C)n23)c2cn(C)nc2C)nc1 [Example 152] | 1 to 10 µM | 0.1 to 1 µM | – | –
Cc1ncc2c(N)nc3cc(F)c(C(=O)N(Cc4ccc(C(F)(F)F)cn4)C4COC4)cc3n12 [Example 158] | 1 to 10 µM | 0.1 to 1 µM | – | –
Cc1[nH]ncc1N(Cc1ccc(C(F)(F)F)cn1)C(=O)c1cc2c(cc1F)nc(N)c1cnc(C)n12 [Example 151] | 1 to 10 µM | 0.1 to 1 µM | – | –
Cc1nn(C)cc1N(Cc1ncc(C(F)(F)F)cn1)C(=O)c1cc2c(cc1F)nc(N)c1cnc(C)n12 [Example 140] | 1 to 10 µM | 0.1 to 1 µM | – | –
CCc1nn(C)cc1N(Cc1ccc(C(F)(F)F)cn1)C(=O)c1cc2c(cc1F)nc(N)c1cnc(C)n12 [Example 169] | – | – | 0.1 to 1 µM | < 0.1 µM
Cc1cn2c(n1)c(N)nc1cc(F)c(C(=O)N3[C@H](C)COC[C@@H]3c3cn4cc(C(F)(F)F)ccc4n3)cc12 [Example 31] | 0.1 to 1 µM | < 0.1 µM | – | –
COc1nn(C)cc1N(Cc1ccc(C(F)(F)F)cn1)C(=O)c1cc2c(cc1F)nc(N)c1cnc(C)n12 [Example 138] | 1 to 10 µM | < 0.1 µM | – | –
CCn1cc(N(Cc2ccc(OC3CC3)cn2)C(=O)c2cc3c(cc2F)nc(N)c2cnc(C)n23)c(C)n1 [Example 171] | 1 to 10 µM | < 0.1 µM | – | –
Cc1ncc2c(N)nc3cc(F)c(C(=O)N(c4cnn(C)c4)C4COc5ccccc54)cc3n12 (stereo not drawn) [Example 125] | – | – | 1 to 10 µM | < 0.1 µM
CCn1cc(N(Cc2ccc(C(F)(F)F)cn2)C(=O)c2cc3c(cn2)nc(N)c2cnc(C)n23)c(C)n1 [Example 192] | 1 to 10 µM | < 0.1 µM | – | –
Cc1ncc2c(N)nc3cc(F)c(C(=O)N(Cc4ccc(C(F)(F)F)cn4)C4CCOC4)cc3n12 (stereo not drawn) [Example 156] | 1 to 10 µM | 0.1 to 1 µM | – | –

Next, values leading:

IC50 (HCT116 MTAP WT cells; Homo sapiens, HCT-116, 144 h) | IC50 ([1]; HCT116-MTAP null, 144 h) | IC50 (HCT116 MTAP WT cells) | IC50 [1] | SMILES
0.1 to 1 µM | < 0.1 µM | – | – | Cc1nn(C)cc1N(Cc1ccc(OC2COC2)cn1)C(=O)c1cc2c(cc1F)nc(N)c1c(C)ncn12 [Example 195]
0.1 to 1 µM | 0.1 to 1 µM | – | – | COc1ccc(C2COCC(C)N2C(=O)c2cc3c(cc2F)nc(N)c2c(C)ncn23)nn1 (stereo not drawn) [Example 278]
1 to 10 µM | 0.1 to 1 µM | – | – | Cc1ncc2c(N)nc3cc(F)c(C(=O)N(Cc4ccc(C(F)(F)F)cn4)C4CCOCC4)cc3n12 [Example 149]
– | < 0.1 µM | 0.1 to 1 µM | – | Cc1ncn2c1c(N)nc1cc(F)c(C(=O)N3C(C)COCC3c3ccc(C(F)(F)F)cn3)cc12 (stereo not drawn) [Example 280]
1 to 10 µM | < 0.1 µM | – | – | Cc1ncn2c1c(N)nc1cc(F)c(C(=O)N3C(C)COCC3c3ccc(C4CCOCC4)cn3)cc12 (stereo not drawn) [Example 112]
1 to 10 µM | 0.1 to 1 µM | – | – | Cc1ncn2c1c(N)nc1ccc(C(=O)N(Cc3nc(-c4cccnn4)cs3)CC(C)C)cc12 [Example 294]
– | – | 1 to 10 µM | < 0.1 µM | Cc1nc(C)n2c1c(N)nc1ccc(C(=O)N(Cc3ccc(C(F)(F)F)cn3)C(C)c3ncccn3)cc12 (stereo not drawn) [Example 14]
1 to 10 µM | < 0.1 µM | – | – | CCN(Cc1cn2cc(C(F)(F)F)ccc2n1)C(=O)c1cc2c(cc1F)nc(N)c1c(C)ncn12 [Example 285]
1 to 10 µM | 0.1 to 1 µM | – | – | Cc1nn(C)cc1N(Cc1ccc(C(F)(F)F)cn1)C(=O)c1ccc2nc(N)c3c(C)nc(C)n3c2c1 [Example 190]
1 to 10 µM | < 0.1 µM | – | – | Cc1ncn2c1c(N)nc1ccc(C(=O)N(Cc3nc(C4=CCOCC4)cs3)CC(C)C)cc12 [Example 303]
1 to 10 µM | < 0.1 µM | – | – | Cc1nc(C)n2c1c(N)nc1ccc(C(=O)N(Cc3ccc(C(F)(F)F)cn3)C(C)c3ncccn3)cc12 (stereo not drawn) [Example 3]
1 to 10 µM | < 0.1 µM | – | – | Cc1ncn2c1c(N)nc1ccc(C(=O)N(Cc3nc(C4CCOCC4)cs3)CC(C)C)cc12 [Example 310]
< 0.1 µM | < 0.1 µM | – | – | Cc1nn(C)cc1N(Cc1ccc(OC2CC2)cn1)C(=O)c1cc2c(cc1F)nc(N)c1c(C)ncn12 [Example 161]
1 to 10 µM | < 0.1 µM | – | – | Cc1ncn2c1c(N)nc1ccc(C(=O)N(CC(C)C)C(C)c3nc(-c4ccccn4)cs3)cc12 (stereo not drawn) [Example 299]
1 to 10 µM | 0.1 to 1 µM | – | – | CCN(Cc1nc(-c2ccc(C(F)(F)F)nc2)cs1)C(=O)c1cc2c(cc1F)nc(N)c1cnc(C)n12 [Example 73]
